Test results reported in the supplement of paper PMC10307832.

Columns and labels:
Assay in all cases: relative viability (nuclei count vs DMSO), 5 days (fraction); higher = more cells survive
DM3189 + Crizotinib = compound: C1CN(CCN1)C2=CC=C(C=C2)C3=CN4C(=C(C=N4)C5=CC=NC6=CC=CC=C56)N=C3 [DM3189] + C[C@@H](Oc1cc(-c2cnn(C3CCNCC3)c2)cnc1N)c1c(Cl)ccc(F)c1Cl [Crizotinib] (partner 1 µM)
Summary of the method: (§1)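 Relative viability equals treated-well nuclei counts divided by vehicle-well nuclei counts. Counts came from 4× images of lung cancer cell lines grown in 1536-well plates for 5 days after pin-tool dosing on the day after seeding. Dosing used one drug alone or a fixed anchor-drug dose plus five library-drug doses (not always all listed) in √10 steps, and values are medians of duplicate plates.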

DM3189 + Alpelisib = compound: C1CN(CCN1)C2=CC=C(C=C2)C3=CN4C(=C(C=N4)C5=CC=NC6=CC=CC=C56)N=C3 [DM3189] + Cc1nc(NC(=O)N2CCC[C@H]2C(N)=O)sc1-c1ccnc(C(C)(C)C(F)(F)F)c1 [Alpelisib] (partner 2 µM)
Summary of the method: as §1

DM3189 + Phenformin = compound: C1CN(CCN1)C2=CC=C(C=C2)C3=CN4C(=C(C=N4)C5=CC=NC6=CC=CC=C56)N=C3 [DM3189] + N=C(N)NC(=N)NCCc1ccccc1 [Phenformin] (partner 250 µM)
Summary of the method: as §1

DM3189 + Foretinib = compound: C1CN(CCN1)C2=CC=C(C=C2)C3=CN4C(=C(C=N4)C5=CC=NC6=CC=CC=C56)N=C3 [DM3189] + COc1cc2c(Oc3ccc(NC(=O)C4(C(=O)Nc5ccc(F)cc5)CC4)cc3F)ccnc2cc1OCCCN1CCOCC1 [Foretinib] (partner 0.25 µM)
Summary of the method: as §1

DM3189 + OSI-027 = compound: C1CN(CCN1)C2=CC=C(C=C2)C3=CN4C(=C(C=N4)C5=CC=NC6=CC=CC=C56)N=C3 [DM3189] + COc1cccc2cc(-c3nc([C@H]4CC[C@H](C(=O)O)CC4)n4ncnc(N)c34)[nH]c12 [OSI-027] (partner 0.5 µM)
Summary of the method: as §1

| Cell Line | relative viability (DM3189 + Crizotinib; first compound 0.08 µM) | relative viability (DM3189 + Crizotinib; first compound 0.253 µM) | relative viability (DM3189 + Crizotinib; first compound 0.8 µM) | relative viability (DM3189 + Crizotinib; first compound 2.53 µM) | relative viability (DM3189 + Alpelisib; first compound 0.08 µM) | relative viability (DM3189 + Alpelisib; first compound 0.253 µM) | relative viability (DM3189 + Alpelisib; first compound 0.8 µM) | relative viability (DM3189 + Alpelisib; first compound 2.53 µM) | relative viability (DM3189 + Phenformin; first compound 0.08 µM) | relative viability (DM3189 + Phenformin; first compound 0.253 µM) | relative viability (DM3189 + Phenformin; first compound 0.8 µM) | relative viability (DM3189 + Phenformin; first compound 2.53 µM) | relative viability (DM3189 + Foretinib; first compound 0.08 µM) | relative viability (DM3189 + Foretinib; first compound 0.253 µM) | relative viability (DM3189 + Foretinib; first compound 0.8 µM) | relative viability (DM3189 + Foretinib; first compound 2.53 µM) | relative viability (DM3189 + OSI-027; first compound 0.08 µM) | relative viability (DM3189 + OSI-027; first compound 0.253 µM) | relative viability (DM3189 + OSI-027; first compound 0.8 µM) | relative viability (DM3189 + OSI-027; first compound 2.53 µM) |
| --- | --- | --- | --- | --- | --- | --- | --- | --- | --- | --- | --- | --- | --- | --- | --- | --- | --- | --- | --- | --- |
| NCI-H23 | 0.545 | 0.491 | 0.442 | 0.579 | 0.768 | 0.741 | 0.675 | 0.699 | 0.865 | 0.761 | 0.643 | 0.826 | 1.01 | 0.861 | 0.882 | 0.982 | 0.664 | 0.594 | 0.457 | 0.577 |
| NCI-H322M | 1.06 | 0.848 | 0.872 | 0.924 | 0.734 | 0.867 | 0.805 | 0.884 | 0.866 | 0.782 | 0.651 | 0.652 | 0.942 | 0.944 | 0.886 | 0.774 | 0.622 | 0.596 | 0.541 | 0.506 |
| NCI-H358 | 0.516 | 0.56 | 0.504 | 0.509 | 0.851 | 0.83 | 0.779 | 0.492 | 0.453 | 0.311 | 0.323 | 0.269 | 0.733 | 0.607 | 0.714 | 0.61 | 1.02 | 0.722 | 0.782 | 0.488 |
| NCI-H441 | 0.951 | 0.751 | 0.737 | 0.924 | 0.877 | 0.595 | 0.837 | 0.467 | 0.825 | 0.959 | 0.794 | 0.738 | 1.01 | 0.726 | 1.24 | 0.702 | 0.747 | 0.602 | 0.451 | 0.486 |
| NCI-H460 | 0.839 | 0.939 | 0.96 | 1.02 | 0.507 | 0.567 | 0.44 | 0.184 | 0.737 | 0.535 | 0.451 | 0.545 | 0.951 | 1.03 | 0.995 | 1.34 | 1.12 | 0.72 | 0.598 | 0.549 |
| NCI-H520 | 0.752 | 0.748 | 0.485 | 0.303 | 0.837 | 0.633 | 0.637 | 0.48 | 0.577 | 0.309 | 0.324 | 0.366 | 0.713 | 0.554 | 0.62 | 0.631 | 0.281 | 0.232 | 0.237 | 0.232 |
| NCI-H596 | 1.15 | 1.01 | 0.93 | 0.943 | 0.578 | 0.517 | 0.386 | 0.478 | 0.724 | 0.802 | 0.78 | 0.709 | 1.12 | 0.955 | 0.695 | 1.06 | 0.799 | 0.746 | 0.615 | 0.643 |
| NCI-H647 | 1.12 | 0.877 | 0.883 | 0.307 | 1.01 | 0.704 | 0.659 | 0.179 | 0.664 | 0.4 | 0.546 | 0.228 | 1.06 | 1.13 | 1.08 | 1.01 | 0.724 | 0.579 | 0.585 | 0.528 |
| NCI-H650 | 0.754 | 0.575 | 0.594 | 0.661 | 1.35 | 1.07 | 0.975 | 0.915 | 0.518 | 0.497 | 0.47 | 0.489 | 1.04 | 0.964 | 0.912 | 1.02 | 0.578 | 0.496 | 0.483 | 0.502 |
| NCI-H661 | 1 | 1.01 | 0.949 | 1.08 | 0.817 | 0.802 | 0.674 | 0.814 | 0.268 | 0.271 | 0.268 | 0.281 | 1.14 | 0.954 | 1.02 | 1.19 | 0.772 | 0.669 | 0.709 | 0.584 |
| NCI-H727 | 0.889 | 0.821 |  | 0.737 | 0.638 | 0.503 |  | 0.56 | 0.628 | 0.517 |  | 0.533 | 0.792 | 0.821 | 0.668 | 0.818 | 0.471 | 0.606 | 0.486 | 0.583 |
| NCI-H838 | 0.752 | 0.815 | 0.531 | 0.732 | 0.965 | 0.981 | 0.749 | 0.989 | 0.775 | 0.507 | 0.471 | 0.385 | 0.951 | 0.891 | 0.689 | 0.895 | 0.427 | 0.376 | 0.312 | 0.357 |
| NCI-H1355 | 1.14 | 1.12 | 0.955 | 0.971 | 0.884 | 0.81 | 0.678 | 0.812 | 0.438 | 0.43 | 0.405 | 0.394 | 0.987 | 0.968 | 0.91 | 0.979 | 0.482 | 0.36 | 0.366 | 0.39 |
| NCI-H1437 | 0.904 | 0.898 | 0.832 | 0.831 | 0.837 | 0.931 | 0.855 | 0.905 | 0.363 | 0.325 | 0.308 | 0.323 | 1.29 | 1.33 | 1.33 | 1.33 | 0.895 | 0.862 | 0.906 | 1.08 |
| NCI-H1651 | 0.857 | 0.886 | 0.878 | 0.957 | 1.23 | 0.986 | 0.924 | 0.797 | 0.45 | 0.339 | 0.335 | 0.272 | 0.83 | 0.716 | 0.831 | 0.827 | 0.783 | 0.626 | 0.864 | 0.727 |
